Experimental data from ChEMBL document CHEMBL1201861, “Genomics of Drug Sensitity in Cancer screening data, Wellcome Trust Sanger Institute”.

How the values were obtained:
Assay in all cases: cells
[1] = system: COR-L88; assay type: functional, cell-based; details: Homo sapiens;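 note: growth inhibition of COR-L88 cells, read out with a cell viability assay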
Description: SANGER: Inhibition of human COR-L88 cell growth in a cell viability assay.

[2] = system: CP66-MEL; assay type: functional, cell-based, Homo sapiens; details: Homo sapiens, CP66-MEL;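 note: growth inhibition of CP66-MEL cells determined in a cell viability assay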
Description: SANGER: Inhibition of human CP66-MEL cell growth in a cell viability assay.

[3] = system: Calu-3; assay type: functional, cell-based, Homo sapiens; details: Homo sapiens, Calu-3;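 note: growth inhibition of human Calu-3 cells, determined with a cell viability assay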
Description: SANGER: Inhibition of human Calu-3 cell growth in a cell viability assay.

[4] = system: DK-MG; assay type: functional, cell-based, Homo sapiens; details: Homo sapiens, DK-MG;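 note: growth inhibition of DK-MG cells, read out with a cell viability assay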
Description: SANGER: Inhibition of human DK-MG cell growth in a cell viability assay.

[5] = system: Daoy; assay type: functional, cell-based, Homo sapiens; details: Homo sapiens, Daoy;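 note: daoy cell growth inhibition, read out as cell viability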
Description: SANGER: Inhibition of human Daoy cell growth in a cell viability assay.

[6] = system: EGI-1; assay type: functional, cell-based, Homo sapiens; details: Homo sapiens, EGI-1;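 note: cell viability readout used to gauge growth inhibition of EGI-1 cells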
Description: SANGER: Inhibition of human EGI-1 cell growth in a cell viability assay.

[7] = system: ES1; assay type: functional, cell-based, Homo sapiens; details: Homo sapiens, ES1;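 note: growth inhibition of ES1 cells, read out with a cell viability assay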
Description: SANGER: Inhibition of human ES1 cell growth in a cell viability assay.

[8] = system: ES3; assay type: functional, cell-based, Homo sapiens; details: Homo sapiens, ES3;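 note: growth inhibition of ES3 cells, read out with a cell viability assay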
Description: SANGER: Inhibition of human ES3 cell growth in a cell viability assay.

[9] = system: ES8; assay type: functional, cell-based, Homo sapiens; details: Homo sapiens, ES8;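 note: growth inhibition of human ES8 cells, read out with a cell viability assay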
Description: SANGER: Inhibition of human ES8 cell growth in a cell viability assay.

[10] = system: ESS-1; assay type: functional, cell-based, Homo sapiens; details: Homo sapiens, ESS-1;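 note: growth inhibition of human ESS-1 cells, read out by a cell viability assay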
Description: SANGER: Inhibition of human ESS-1 cell growth in a cell viability assay.

[11] = system: EW-18; assay type: functional, cell-based; details: Homo sapiens;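 note: growth inhibition of EW-18 cells, read out by a cell viability assay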
Description: SANGER: Inhibition of human EW-18 cell growth in a cell viability assay.

[12] = system: HCE-T; assay type: functional, cell-based, Homo sapiens; details: Homo sapiens, HCE-T;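 note: cell viability assay read-out, reporting inhibition of HCE-T cell growth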
Description: SANGER: Inhibition of human HCE-T cell growth in a cell viability assay.

[13] = system: HOP-62; assay type: functional, cell-based, Homo sapiens; details: Homo sapiens, HOP-62;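 note: cell growth inhibition determined with a viability assay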
Description: SANGER: Inhibition of human HOP-62 cell growth in a cell viability assay.

[14] = system: HT1197; assay type: functional, cell-based, Homo sapiens, HT-1197; details: Homo sapiens, HT1197
Description: SANGER: Inhibition of human HT-1197 cell growth in a cell viability assay.

[15] = system: IST-MES1; assay type: functional, cell-based, Homo sapiens; details: Homo sapiens, IST-MES1;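 note: growth inhibition of IST-MES1 cells, measured with a cell viability assay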
Description: SANGER: Inhibition of human IST-MES1 cell growth in a cell viability assay.

[16] = system: JAR; assay type: functional, cell-based, Homo sapiens; details: Homo sapiens, JAR;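 note: growth inhibition of human JAR cells determined with a cell viability assay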
Description: SANGER: Inhibition of human JAR cell growth in a cell viability assay.

[17] = system: KE-37; assay type: functional, cell-based; details: Homo sapiens;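 note: growth inhibition of KE-37 cells, read out with a cell viability assay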
Description: SANGER: Inhibition of human KE-37 cell growth in a cell viability assay.

[18] = system: KM-H2; assay type: functional, cell-based; details: Homo sapiens;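 note: growth inhibition of KM-H2 cells, read out by a cell viability assay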
Description: SANGER: Inhibition of human KM-H2 cell growth in a cell viability assay.

[19] = system: KP-4; assay type: functional, cell-based, Homo sapiens; details: Homo sapiens, KP-4; read-out: IC50;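 note: human KP-4 cells, with growth inhibition read out through a cell viability assay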
Description: SANGER: Inhibition of human KP-4 cell growth in a cell viability assay.

[20] = system: KYSE-140; assay type: functional, cell-based, Homo sapiens; details: Homo sapiens, KYSE-140;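 note: cell viability assay measuring growth inhibition in human KYSE-140 cells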
Description: SANGER: Inhibition of human KYSE-140 cell growth in a cell viability assay.

[21] = system: LS-513; assay type: functional, cell-based, Homo sapiens; details: Homo sapiens, LS-513
Description: SANGER: Inhibition of human LS-513 cell growth in a cell viability assay.

[22] = system: MDA-MB-453; assay type: functional, cell-based, Homo sapiens; details: Homo sapiens, MDA-MB-453
Description: SANGER: Inhibition of human MDA-MB-453 cell growth in a cell viability assay.

[23] = system: MFE-280; assay type: functional, cell-based, Homo sapiens; details: Homo sapiens, MFE-280;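 note: growth inhibition of MFE-280 cells, determined with a cell viability readout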
Description: SANGER: Inhibition of human MFE-280 cell growth in a cell viability assay.

[24] = system: MSTO-211H; assay type: functional, cell-based, Homo sapiens; details: Homo sapiens, MSTO-211H
Description: SANGER: Inhibition of human MSTO-211H cell growth in a cell viability assay.

[25] = system: NB17; assay type: functional, cell-based; details: Homo sapiens;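 note: growth inhibition of NB17 cells, read out with a cell viability assay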
Description: SANGER: Inhibition of human NB17 cell growth in a cell viability assay.

[26] = system: NCI-H209; assay type: functional, cell-based; details: Homo sapiens;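 note: growth inhibition of human NCI-H209 cells, measured by a cell viability assay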
Description: SANGER: Inhibition of human NCI-H209 cell growth in a cell viability assay.

[27] = system: NCI-H441; assay type: functional, cell-based; details: Homo sapiens;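 note: growth inhibition of NCI-H441 cells, read out with a cell viability assay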
Description: SANGER: Inhibition of human NCI-H441 cell growth in a cell viability assay.

[28] = system: NMC-G1; assay type: functional, cell-based, Homo sapiens; details: Homo sapiens, NMC-G1;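 note: growth inhibition of the NMC-G1 cell line, measured with a cell viability read-out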
Description: SANGER: Inhibition of human NMC-G1 cell growth in a cell viability assay.

[29] = system: OVCAR-3; assay type: functional, cell-based, Homo sapiens; details: Homo sapiens, OVCAR-3;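 note: growth inhibition of human OVCAR-3 cells, determined by a cell viability assay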
Description: SANGER: Inhibition of human OVCAR-3 cell growth in a cell viability assay.

[30] = system: P30-OHK; assay type: functional, cell-based; details: Homo sapiens;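 note: growth inhibition of the P30-OHK cell line, read out with a cell viability assay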
Description: SANGER: Inhibition of human P30-OHK cell growth in a cell viability assay.

[31] = system: PSN1; assay type: functional, cell-based, Homo sapiens; details: Homo sapiens, PSN1;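 note: suppression of growth of human PSN1 cells, read out by a cell viability assay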
Description: SANGER: Inhibition of human PSN1 cell growth in a cell viability assay.

[32] = system: RKO; assay type: functional, cell-based, Homo sapiens; details: Homo sapiens, RKO;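 note: growth inhibition of human RKO cells, read out with a cell viability assay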
Description: SANGER: Inhibition of human RKO cell growth in a cell viability assay.

[33] = system: RPMI-8226; assay type: functional, cell-based; details: Homo sapiens
Description: SANGER: Inhibition of human RPMI-8226 cell growth in a cell viability assay.

[34] = system: SF-268; assay type: functional, cell-based, Homo sapiens; details: Homo sapiens, SF-268;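 note: growth inhibition of SF-268 cells determined with a cell viability assay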
Description: SANGER: Inhibition of human SF268 cell growth in a cell viability assay.

[35] = system: SF-295; assay type: functional, cell-based, Homo sapiens; details: Homo sapiens, SF-295; read-out: IC50;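 note: growth inhibition of SF-295 cells, read out with a cell viability assay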
Description: SANGER: Inhibition of human SF295 cell growth in a cell viability assay.

[36] = system: SK-MEL-30; assay type: functional, cell-based; details: Homo sapiens;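 note: growth inhibition of SK-MEL-30 cells, determined with a cell viability assay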
Description: SANGER: Inhibition of human SK-MEL-30 cell growth in a cell viability assay.

[37] = system: SW1417; assay type: functional, cell-based, Homo sapiens; details: Homo sapiens, SW1417;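 note: growth inhibition of human SW1417 cells, read out with a cell viability assay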
Description: SANGER: Inhibition of human SW1417 cell growth in a cell viability assay.

[38] = system: SW1573; assay type: functional, cell-based, Homo sapiens; details: Homo sapiens, SW1573;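 note: growth inhibition of SW1573 cells, read out with a cell viability assay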
Description: SANGER: Inhibition of human SW1573 cell growth in a cell viability assay.

[39] = system: SW837; assay type: functional, cell-based, Homo sapiens; details: Homo sapiens, SW837;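 note: growth inhibition of SW837 cells, determined with a cell viability assay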
Description: SANGER: Inhibition of human SW837 cell growth in a cell viability assay.

[40] = system: SW 954; assay type: functional, cell-based, Homo sapiens; details: Homo sapiens, SW 954;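 note: growth inhibition of SW954 human cancer cells, read out as cell viability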
Description: SANGER: Inhibition of human SW954 cell growth in a cell viability assay.

[41] = system: SW982; assay type: functional, cell-based; details: Homo sapiens;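 note: growth inhibition of SW982 cells, read out with a cell viability assay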
Description: SANGER: Inhibition of human SW982 cell growth in a cell viability assay.

[42] = system: ALL-PO; assay type: functional, cell-based; details: Homo sapiens;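 note: growth inhibition of ALL-PO cells, read out by a cell viability assay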
Description: SANGER: Inhibition of human ALL-PO cell growth in a cell viability assay.

[43] = system: AM-38; assay type: functional, cell-based, Homo sapiens; details: Homo sapiens, AM-38;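 note: growth inhibition of AM-38 cells of human origin, read out by a cell viability assay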
Description: SANGER: Inhibition of human AM-38 cell growth in a cell viability assay.

[44] = system: BEN; assay type: functional, cell-based, Homo sapiens; details: Homo sapiens, BEN;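 note: growth inhibition of the BEN cell line, read out with a cell viability assay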
Description: SANGER: Inhibition of human BEN cell growth in a cell viability assay.

[45] = system: CAL-39; assay type: functional, cell-based, Homo sapiens; details: Homo sapiens, CAL-39;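 note: cell viability assay measuring growth inhibition of CAL-39 cells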
Description: SANGER: Inhibition of human CAL-39 cell growth in a cell viability assay.

[46] = system: CAL-51; assay type: functional, cell-based, Homo sapiens; details: Homo sapiens, CAL-51;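 note: human CAL-51 cell line, growth inhibition read out via a cell viability assay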
Description: SANGER: Inhibition of human CAL-51 cell growth in a cell viability assay.

[47] = system: TE-8; assay type: functional, cell-based, Homo sapiens; details: Homo sapiens, TE-8;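 note: growth inhibition of TE-8 cells, measured with a cell viability readout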
Description: SANGER: Inhibition of human TE-8 cell growth in a cell viability assay.

[48] = system: U-87 MG; assay type: functional, cell-based, U-87MG ATCC; details: Homo sapiens;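 note: growth inhibition of the cells measured with a viability assay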
Description: SANGER: Inhibition of human U-87-MG cell growth in a cell viability assay.

[49] = system: U-251; assay type: functional, cell-based, Homo sapiens; details: Homo sapiens, U-251;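 note: growth inhibition of human U-251 cells, read out through a cell viability assay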
Description: SANGER: Inhibition of human U251 cell growth in a cell viability assay.

[50] = system: UMUC3; assay type: functional, cell-based, Homo sapiens; details: Homo sapiens, UMUC3;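 note: growth inhibition of human UM-UC-3 cells, read out with a cell viability assay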
Description: SANGER: Inhibition of human UM-UC-3 cell growth in a cell viability assay.

[51] = system: YKG-1; assay type: functional, cell-based, Homo sapiens; details: Homo sapiens, YKG-1;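 note: cell growth inhibition, read out with a viability assay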
Description: SANGER: Inhibition of human YKG-1 cell growth in a cell viability assay.

Measured: IC50

CCOc1nc(NC(=O)Cc2cc(OC)ccc2OC)cc(N)c1C#N
> 10 µM: all assays above

O=c1cc(-c2cccc3c2Sc2ccccc2S3)oc(N2CCOCC2)c1 [KU-55933]
not listed: [1] | [11] | [26]
> 10 µM: all other assays above
